In US12622966B2, “Compound for photothermal cancer therapy, composition including the same, and method for photothermal cancer therapy” (PUKYONG NATIONAL UNIVERSITY INDUSTRY-UNIVERSITY COOPERATION …, priority 2022, dated 2026):

Assays:
[1] = UV-Vis absorption in DMSO; type: physicochemical; settings: for λabs, absorption wavelength: in DMSO
Description: FIG. 2 illustrates UV-Vis absorption (solid line) and fluorescence emission (dotted line) spectra of NI1 (60 μM) and NI2 (40 μM) in DMSO according to an embodiment of the present disclosure;
In the UV-Vis spectrum of FIG. 2 and Table 1, an absorption peak of NI1 has a tendency of red-shift absorption (λabs=728 nm, in DMSO) compared to NI2 (λabs=690 nm, in DMSO) in an organic solvent. […] The molar absorption coefficient (8) of NI1 is relatively lower than that of NI2, which generates a conjugate in a free pair of electrons of an —NH group due to the introduction of a phenyl group in NI2 and may reduce an ICT effect from an electron donor group to an electron acceptor group compared to NI1.

[2] = Photothermal conversion efficiency; type: physicochemical; set-up: η (THF), photothermal conversion efficiency: concentration or dose not given beside the values; settings: for η (DMSO), photothermal conversion efficiency: in DMSO; for η (THF), photothermal conversion efficiency: in THF; for η (NPs), photothermal conversion efficiency: nanoparticles (nanoaggregates)
Description: FIGS. 3A, 3B, and 3C relate to the thermal reaction of NI2 NPs according to 691 nm laser irradiation at 1 W/cm^2 and 1.5 W/cm^2 according to an embodiment of the present disclosure. FIG. 3A illustrates temperature rise measured in NI2 NPs at various concentrations (0 for distilled water, 25, 50, 75, and 100 μM) after irradiation for 150 seconds (N=4); FIG. 3B illustrates photothermal convergence efficiency (PCE) of NI2 NPs (100 μM) in 4 ON/OFF cycles of laser irradiation (ON/OFF time=150 s/450 s; duty cycle=25%); and FIG. 3C illustrates infrared thermal images of NI2 NPs (100 μM) captured at various irradiation times (scale bar=5 mm);
FIGS. 3A, 3B and 3C show quantitative analysis results of the photothermal characteristics and photothermal conversion efficiency of NI2 nanoparticles according to various concentrations and laser irradiation times in a 691 nm laser (1 W/cm^2 and 1.5 W/cm^2) irradiation of NI2 nanoparticles. When the concentration of the NI2 solution (in D.W.) was changed from 0 to 100 μM, it could be seen that the temperature increased in proportion to the concentration when the temperature change of the NI2 solution was measured after absorption for 150 seconds. That is, in FIG. 3A, it may be seen that a temperature increase (ΔT) changes linearly after irradiation for 150 seconds (R^2=0.98 to 0.99), and the maximum temperature of the NI2 NP was 42.8±2.8° C. and 54.4±0.5° C. for 1 W/cm^2 and 1.5 W/cm^2 at 100 μM, respectively. […] In FIG. 3C, it may be seen in the captured sequential thermal images showing the “spatio-temporal distribution” in the temperature area.

Row | ε, molar absorption coefficient [1] | λabs, absorption wavelength [1] | η (DMSO), photothermal conversion efficiency [2] | η (THF), photothermal conversion efficiency [2] | η (NPs), photothermal conversion efficiency [2] | Structure (SMILES)
1 | 12.0 ×10^3 | 728 nm | 50.3% | 31.4% | 58.3% | CNc1ccc(N=C2C(=C(C#N)C#N)c3ccccc3C2=C(C#N)C#N)cc1 [NI1]
2 | 15.6 ×10^3 | 690 nm | 52.1% | 32.4% | 92.5% | N#CC(C#N)=C1C(=Nc2ccc(Nc3ccccc3)cc2)C(=C(C#N)C#N)c2ccccc21 [NI2]
